The subject of one assay is Phytophthora infestans. In words: whole plant or invertebrate. In kind it is in vivo. The conditions noted are these: in Solanum lycopersicum, foliar, read-out: control of Phytophthora infestans (percent disease control compared to untreated).
The subject of the next assay is Plasmopara viticola. In words: whole plant or invertebrate. In kind it is in vivo. The settings on record: foliar, read-out: control of Plasmopara viticola (percent disease control compared to untreated).
A further assay has as its system Pythium ultimum. Put plainly: Pythium ultimum / liquid culture (seedling damping off). The format is cell-based. The settings on record: Globisporangium ultimum, liquid culture in PDB, 24° C., 2-3 days after application, read-out: control of Pythium ultimum (inhibition of growth, photometric). The method, then:
Pythium ultimum/Liquid Culture (Seedling Damping Off)
Mycelia fragments and oospores of a newly grown liquid culture of the fungus are directly mixed into nutrient broth (PDB potato dextrose broth). After placing a (DMSO) solution of test compound into a microtiter plate (96-well format), the nutrient broth containing the fungal mycelia/spore mixture is added. The test plates are incubated at 24° C. and the inhibition of growth is determined photometrically 2-3 days after application.

On to `COC(=O)Nc1ccc(-c2cnc3c(C)cc(N(C)C(=O)c4ccc(Cl)c(OC)c4)cn23)cn1` [Compound 1, methyl N-[5-[6-[(4-chloro-3-methoxy-benzoyl)-methyl-amino]-8-methyl-imidazo[1,2-a]pyridin-3-yl]-2-pyridyl]carbamate], for which the pest or weed control at 200 ppm in the assay with Phytophthora infestans and with Plasmopara viticola was not below 80% each time. Also, the inhibition at 20 ppm with Pythium ultimum is not below 80%.
With `COC(=O)Nc1ccc(-c2cnc3c(C)cc(N(C)C(=O)c4ccc(C#N)c(C)c4)cn23)cn1` [Compound 2, methyl N-[5-[6-[(4-cyano-3-methyl-benzoyl)-methyl-amino]-8-methyl-imidazo[1,2-a]pyridin-3-yl]-2-pyridyl]carbamate], the inhibition at 20 ppm in the assay with Pythium ultimum was not below 80%.
With `COC(=O)Nc1ccc(-c2cnc3c(C)cc(N(C)C(=O)c4ccnc(OC)c4)cn23)cn1` [Compound 3, methyl N-[5-[6-[(2-methoxypyridine-4-carbonyl)-methyl-amino]-8-methyl-imidazo[1,2-a]pyridin-3-yl]-2-pyridyl]carbamate], in the assay on Phytophthora infestans, the pest or weed control at 200 ppm is not below 80%. Moreover, the inhibition at 20 ppm in the assay on Pythium ultimum was not below 80%.
In the case of `COC(=O)Nc1ccc(-c2cnc3c(C)cc(N(C)C(=O)c4ccc(C#N)c(F)c4)cn23)cn1` [Compound 4, methyl N-[5-[6-[(4-cyano-3-fluoro-benzoyl)-methyl-amino]-8-methyl-imidazo[1,2-a]pyridin-3-yl]-2-pyridyl]carbamate], the inhibition at 20 ppm with Pythium ultimum was not below 80%.
With `COC(=O)Nc1ccc(-c2cnc3c(C)cc(N(C)C(=O)c4ccc(C#N)c(OC)c4)cn23)cn1` [Compound 5, methyl N-[5-[6-[(4-cyano-3-methoxy-benzoyl)-methyl-amino]-8-methyl-imidazo[1,2-a]pyridin-3-yl]-2-pyridyl]carbamate], the pest or weed control at 200 ppm in the assay with Phytophthora infestans and in the assay on Plasmopara viticola was not below 80% each time. For the same compound, in the assay with Pythium ultimum, the inhibition at 20 ppm was not below 80%.
Consider `COC(=O)Nc1ccc(-c2cnc3ccc(N(CC#N)C(=O)c4ccc(F)cc4)cn23)cn1` [Compound 6, methyl N-[5-[6-[cyanomethyl-(4-fluorobenzoyl)amino]imidazo[1,2-a]pyridin-3-yl]-2-pyridyl]carbamate], for which the inhibition at 20 ppm with Pythium ultimum was not below 80%.
Same read-out and setting: the same measure for `COC(=O)Nc1ccc(-c2cnc3ccc(N(CC#N)C(=O)c4ccc(F)c(OC)c4)cn23)cn1` [Compound 7, methyl N-[5-[6-[cyanomethyl-(4-fluoro-3-methoxy-benzoyl)amino]imidazo[1,2-a]pyridin-3-yl]-2-pyridyl]carbamate]: not below 80%.
Take `CCOc1cc(C(=O)N(C)c2cc(C)c3ncc(-c4ccc(NC(=O)OC)nc4)n3c2)ccc1C#N` [Compound 10, methyl N-[5-[6-[(4-cyano-3-ethoxy-benzoyl)-methyl-amino]-8-methyl-imidazo[1,2-a]pyridin-3-yl]-2-pyridyl]carbamate]: the pest or weed control at 200 ppm with Phytophthora infestans and with Plasmopara viticola was not below 80% each time. For the same compound, the inhibition at 20 ppm in the assay with Pythium ultimum was not below 80%.
With `COC(=O)Nc1ccc(-c2cnc3c(C)cc(N(C)C(=O)c4ccc(F)c(C)c4)cn23)cn1` [Compound 11, methyl N-[5-[6-[(4-fluoro-3-methyl-benzoyl)-methyl-amino]-8-methyl-imidazo[1,2-a]pyridin-3-yl]-2-pyridyl]carbamate], the pest or weed control at 200 ppm with Phytophthora infestans and with Plasmopara viticola was not below 80% each time. In addition, the inhibition at 20 ppm in the assay with Pythium ultimum is not below 80%.
With `COC(=O)Nc1ccc(-c2cnc3c(C)cc(N(C)C(=O)c4ccc(F)c(F)c4)cn23)cn1` [Compound 12, methyl N-[5-[6-[(3,4-difluorobenzoyl)-methyl-amino]-8-methyl-imidazo[1,2-a]pyridin-3-yl]-2-pyridyl]carbamate], the pest or weed control at 200 ppm in the assay with Phytophthora infestans and in the assay with Plasmopara viticola was not below 80% each time. Moreover, the inhibition at 20 ppm in the assay on Pythium ultimum is not below 80%.
With `COC(=O)Nc1ccc(-c2cnc3c(C)cc(N(C)C(=O)c4ccc(F)c(OC)c4)cn23)cn1` [Compound 13, methyl N-[5-[6-[(4-fluoro-3-methoxy-benzoyl)-methyl-amino]-8-methyl-imidazo[1,2-a]pyridin-3-yl]-2-pyridyl]carbamate], the pest or weed control at 200 ppm in the assay on Phytophthora infestans and with Plasmopara viticola was not below 80% throughout. The inhibition at 20 ppm with Pythium ultimum was not below 80%.
In the case of `COCCN(C(=O)c1ccc(F)c(OC)c1)c1ccc2ncc(-c3ccc(NC(=O)OC)nc3)n2c1` [Compound 14, methyl N-[5-[6-[(4-fluoro-3-methoxy-benzoyl)-(2-methoxyethyl)amino]imidazo[1,2-a]pyridin-3-yl]-2-pyridyl]carbamate], the inhibition at 20 ppm with Pythium ultimum is not below 80%.
As to `COC(=O)Nc1ccc(-c2cnc3ccc(N(C)C(=O)c4ccc(C#N)c(F)c4)cn23)cn1` [Compound 15, methyl N-[5-[6-[(4-cyano-3-fluoro-benzoyl)-methyl-amino]imidazo[1,2-a]pyridin-3-yl]-2-pyridyl]carbamate], the inhibition at 20 ppm with Pythium ultimum is not below 80%.
Take `COC(=O)Nc1ccc(-c2cnc3ccc(N(C)C(=O)c4ccc(C#N)c(C)c4)cn23)cn1` [Compound 17, methyl N-[5-[6-[(4-cyano-3-methyl-benzoyl)-methyl-amino]imidazo[1,2-a]pyridin-3-yl]-2-pyridyl]carbamate]: the inhibition at 20 ppm with Pythium ultimum is not below 80%.
As to `CCOc1cc(C(=O)N(C)c2cc(C)c3ncc(-c4ccc(NC(=O)OC)nc4)n3c2)ccc1F` [Compound 19, methyl N-[5-[6-[(3-ethoxy-4-fluoro-benzoyl)-methyl-amino]-8-methyl-imidazo[1,2-a]pyridin-3-yl]-2-pyridyl]carbamate], in the assay with Phytophthora infestans, the pest or weed control at 200 ppm is not below 80%. For the same compound, in the assay on Pythium ultimum, the inhibition at 20 ppm is not below 80%.
`COC(=O)Nc1ccc(-c2cnc3ccc(N(C)C(=O)c4ccc(F)c(C)c4)cn23)cn1` [Compound 21, methyl N-[5-[6-[(4-fluoro-3-methyl-benzoyl)-methyl-amino]imidazo[1,2-a]pyridin-3-yl]-2-pyridyl]carbamate]: in the assay on Phytophthora infestans, the pest or weed control at 200 ppm is not below 80%. The inhibition at 20 ppm with Pythium ultimum was not below 80%.
For the compound `COC(=O)Nc1ccc(-c2cnc3ccc(N(C)C(=O)c4ccc(F)c(F)c4)cn23)cn1` [Compound 22, methyl N-[5-[6-[(3,4-difluorobenzoyl)-methyl-amino]imidazo[1,2-a]pyridin-3-yl]-2-pyridyl]carbamate], the pest or weed control at 200 ppm with Phytophthora infestans was not below 80%. The inhibition at 20 ppm with Pythium ultimum was not below 80%.
For the compound `CCOc1cc(C(=O)N(C)c2ccc3ncc(-c4ccc(NC(=O)OC)nc4)n3c2)ccc1F` [Compound 23, methyl N-[5-[6-[(3-ethoxy-4-fluoro-benzoyl)-methyl-amino]imidazo[1,2-a]pyridin-3-yl]-2-pyridyl]carbamate], the pest or weed control at 200 ppm with Phytophthora infestans is not below 80%. Also, the inhibition at 20 ppm with Pythium ultimum is not below 80%.
Take `COCN(C(=O)c1ccc(F)cc1)c1ccc2ncc(-c3ccc(NC(=O)OC)nc3)n2c1` [Compound 24, methyl N-[5-[6-[(4-fluorobenzoyl)-(methoxymethyl)amino]imidazo[1,2-a]pyridin-3-yl]-2-pyridyl]carbamate]: the pest or weed control at 200 ppm with Phytophthora infestans was not below 80%. For the same compound, in the assay with Pythium ultimum, the inhibition at 20 ppm is not below 80%.
Regarding `COC(=O)Nc1ccc(-c2cnc3ccc(N(C)C(=O)c4ccc(Cl)cc4)cn23)cc1` [Compound 27, methyl N-[4-[6-[(4-chlorobenzoyl)-methyl-amino]imidazo[1,2-a]pyridin-3-yl]phenyl]carbamate], the pest or weed control at 200 ppm with Plasmopara viticola is not below 80%. In addition, in the assay with Pythium ultimum, the inhibition at 20 ppm is not below 80%.
As to `COC(=O)Nc1ccc(-c2cnc3c(C)cc(N(C)C(=O)c4cccc(OC)n4)cn23)cn1` [Compound 37, methyl N-[5-[6-[(6-methoxypyridine-2-carbonyl)-methyl-amino]-8-methyl-imidazo[1,2-a]pyridin-3-yl]-2-pyridyl]carbamate], the pest or weed control at 200 ppm with Phytophthora infestans is not below 80%.
For the compound `COC(=O)Nc1ccc(-c2cnc3c(C)cc(N(C)C(=O)c4ccccc4C(=O)OC)cn23)cn1` [Compound 40], the pest or weed control at 200 ppm in the assay with Phytophthora infestans is not below 80%.
Take `COC(=O)Nc1ccc(-c2cnc3c(C)cc(N(C)C(=O)c4cnc(F)c(C)c4)cn23)cn1` [Compound 43, methyl N-[5-[6-[(6-fluoro-5-methyl-pyridine-3-carbonyl)-methyl-amino]-8-methyl-imidazo[1,2-a]pyridin-3-yl]-2-pyridyl]carbamate]: the pest or weed control at 200 ppm with Phytophthora infestans is not below 80%. Also, the inhibition at 20 ppm in the assay with Pythium ultimum was not below 80%.
On to `COC(=O)Nc1ccc(-c2cnc3c(C)cc(N(C)C(=O)c4cccnc4SC)cn23)cn1` [Compound 46, methyl N-[5-[8-methyl-6-[methyl-(2-methylsulfanylpyridine-3-carbonyl)amino]imidazo[1,2-a]pyridin-3-yl]-2-pyridyl]carbamate], for which, in the assay on Phytophthora infestans, the pest or weed control at 200 ppm was not below 80%.
In the case of `COC(=O)Nc1ccc(-c2cnc3c(C)cc(N(C)C(=O)c4ccc(C#N)nc4)cn23)cn1` [Compound 51, methyl N-[5-[6-[(6-cyanopyridine-3-carbonyl)-methyl-amino]-8-methyl-imidazo[1,2-a]pyridin-3-yl]-2-pyridyl]carbamate], the pest or weed control at 200 ppm with Phytophthora infestans is not below 80%.
Regarding `COC(=O)Nc1ccc(-c2cnc3c(NC(C)=O)cc(N(C)C(=O)c4ccc(F)c(OC)c4)cn23)cn1` [Compound 59, methyl N-[5-[8-acetamido-6-[(4-fluoro-3-methoxy-benzoyl)-methyl-amino]imidazo[1,2-a]pyridin-3-yl]-2-pyridyl]carbamate], the pest or weed control at 200 ppm in the assay with Phytophthora infestans is not below 80%. The inhibition at 20 ppm with Pythium ultimum was not below 80%.
On to `COC(=O)Nc1ccc(-c2cnc3ccc(N(CCC#N)C(=O)c4ccc(F)c(OC)c4)cn23)cn1` [Compound 62, methyl N-[5-[6-[2-cyanoethyl-(4-fluoro-3-methoxy-benzoyl)amino]imidazo[1,2-a]pyridin-3-yl]-2-pyridyl]carbamate], for which the pest or weed control at 200 ppm in the assay with Phytophthora infestans is not below 80%. In addition, the inhibition at 20 ppm in the assay with Pythium ultimum was not below 80%.
